Values quoted from earlier work, collected in patent publication US12527979B2, “Treatment of HER3-mutated cancer by administration of anti-HER3 antibody-drug conjugate” (DAIICHI SANKYO COMPANY, LIMITED, priority 2018, dated 2026).
Read-outs that look alike come from different tables or passages of the source.

Assays:
[1] = tested on: HER3-mutated cancers; conditions: clinical studies
[2] = tested on: HER3-mutated cancers; conditions: in vitro and in vivo, in situations where HER2 is overexpressed
[3] = molecular target: T1, topoisomerase I (Homo sapiens, UniProt P11387)
T1 sequence (P11387 1-765): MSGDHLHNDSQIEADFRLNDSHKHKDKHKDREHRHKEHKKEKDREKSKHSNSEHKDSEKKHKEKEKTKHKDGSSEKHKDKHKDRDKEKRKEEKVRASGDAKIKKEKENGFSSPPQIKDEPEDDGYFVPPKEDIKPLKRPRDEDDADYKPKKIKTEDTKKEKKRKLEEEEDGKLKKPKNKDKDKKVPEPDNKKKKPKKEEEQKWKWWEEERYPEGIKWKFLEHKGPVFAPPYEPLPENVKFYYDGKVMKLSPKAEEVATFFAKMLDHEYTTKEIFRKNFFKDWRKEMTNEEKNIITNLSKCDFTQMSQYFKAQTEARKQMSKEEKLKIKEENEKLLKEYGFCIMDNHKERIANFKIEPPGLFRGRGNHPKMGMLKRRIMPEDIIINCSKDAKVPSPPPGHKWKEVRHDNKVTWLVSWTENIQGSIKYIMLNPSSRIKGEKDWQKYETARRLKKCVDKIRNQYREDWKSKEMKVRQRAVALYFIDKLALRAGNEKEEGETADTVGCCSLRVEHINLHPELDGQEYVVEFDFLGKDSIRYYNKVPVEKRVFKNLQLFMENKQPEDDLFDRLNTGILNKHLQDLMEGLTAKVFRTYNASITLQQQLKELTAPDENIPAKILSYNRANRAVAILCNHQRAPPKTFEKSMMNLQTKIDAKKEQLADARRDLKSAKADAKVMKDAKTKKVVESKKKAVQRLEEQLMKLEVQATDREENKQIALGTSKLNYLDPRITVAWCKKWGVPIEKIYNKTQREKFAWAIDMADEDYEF

In the case of CCOc1cc2ncc(C#N)c(Nc3ccc(OCc4ccccn4)c(Cl)c3)c2cc1NC(=O)/C=C/CN(C)C [neratinib], the “effectiveness against HER3-mutated cancers” value [1] is listed as “no effectiveness”.

In the case of CS(=O)(=O)CCNCc1ccc(-c2ccc3ncnc(Nc4ccc(OCc5cccc(F)c5)c(Cl)c4)c3c2)o1 [lapatinib], the “effectiveness against HER3-mutated cancers” value [2] is given as “exhibited effectiveness”.

For CC[C@@]1(O)C(=O)OCc2c1cc1n(c2=O)Cc2c-1nc1cc(F)c(C)c3c1c2[C@@H](NC(=O)CO)CC3, the “topoisomerase I inhibitory effect” value [3] is given as “confirmed to have a topoisomerase I inhibitory effect”.
